# Test system: DLD-1 human colon adenocarcinoma cells
# Experiment: In vivo anti-tumor study, staged model
# Parameters: species or system Nude mice
# Conditions: dosing from day 10
# Procedure: Staged Model. In this model the initiation of therapy was delayed until the tumors had reached a certain volume. Nude mice (5-6 week old females) were inoculated with 5×10^6 DLD-1 human colon adenocarcinoma cells on day 1, and then randomized on day 10. The dosing of these mice was started on day 10. Groups 1 to 5, having 10 mice in each group, were dosed orally every 12 hours with no treatment, vehicle,
# [drawing 36] 50 mpk, respectively, for 26 days. All animals were carefully monitored at least daily and each tumor was measured twice a week. The tumor growth inhibition level observed is set forth below in Table 4.
smiles,measurement,setting,value
CN(C)CCCNc1nc(CN2CCN(C(c3ccc(Cl)cc3)c3ccc(Cl)cc3)CC2)nc2ccccc12 [drawing 37],"% inhibition (tumor growth), staged model",10 mpk orally every 12 hours for 26 days,10.15%
same,"% inhibition (tumor growth), staged model",30 mpk orally every 12 hours for 26 days,14.73%
same,"% inhibition (tumor growth), staged model",50 mpk orally every 12 hours for 26 days,44.31%

# Reference: patent US7790474B1, “p53 modulators” (Schering Corporation, priority 2005, dated 2010)
